Converted amounts (≈) assume the structure as drawn. “Also recorded” adds a separate entry of the source.
Tests used:
AmpC β-lactamase = biological target: T1, AmpC β-lactamase (Escherichia coli, UniProt P00811); experiment: biochemical; type: biochemical; details: for Ki: 50 mM TRIS pH 7.0, nitrocefin substrate, progress curve analysis; for change of AmpC inhibition/binding relative to compound 1: analogs of 1
T1 construct: made in house
Procedure: Enzymology. AmpC from Escherichia coli was expressed and purified to homogeneity as described in the literature. […] All were used without further purification. Kinetic measurements with AmpC were performed in 50 mM TRIS buffer, pH 7.0, using nitrocefin as a substrate. […] Reactions were initiated by the addition of 0.875 nM enzyme and monitored in methacrylate cuvettes. […] Ki values for the compounds were obtained by comparison of progress curves in the presence and absence of inhibitor.

related serine amidases = experiment: Counter-screens against related serine amidases; type: biochemical
Procedure: (§1) The substrates for α-chymotrypsin (succinyl-ala-ala-pro-phe-p-nitroanilide) and β-trypsin (N-benzoyl-L-arginine ethyl ester, BAEE) were also purchased from Sigma. The elastase substrate used (elastase substrate 1, MeOSuc-Ala-Ala-Pro-Val-pNA) was purchased from Calbiochem (San Diego, Calif.). Substrates were diluted from 10 mM DMSO stock solutions, and all reactions were performed in 50 mM TRIS buffer, pH 7.0, 25° C. For α-chymotrypsin, 200 μM of substrate was used; the reactions were initiated by addition of 10 μL of a 0.1 mg/ml enzyme stock solution and monitored at 410 nm. For β-trypsin, 200 μM of BAEE was used, the reactions were initiated by the addition of 5 μL of a 0.2 mg/ml enzyme stock solution, and monitored at 260 nm. For elastase, 640 μM of elastase substrate was used, the reactions were initiated by the addition of 30 μL of a 0.2 mg/mL enzyme stock solution, and monitored at 385 nm. Initial rate fits to the absorbance data for the first 150 seconds of each reaction were used to determine reaction velocities.

[1] = tested on: JM109 E. coli expressing AmpC; experiment: Antimicrobial susceptibility testing (MIC), AmpC-expressing strain; type: cell-based
Procedure: (§2) Antimicrobial experiments. Susceptibility testing was performed and interpreted following the guidelines of the National Committee for Clinical Laboratory Standards. To test the inhibitory activity of 1, the compound was dissolved in 50% DMSO and dilutions were performed using Luria Broth growth medium.

α-chymotrypsin = biological target: T2, α-chymotrypsin (Bos taurus, UniProt P00766); experiment: biochemical; set-up: species or system bovine; details: 200 μM substrate, 50 mM TRIS pH 7.0, 25° C.
T2 construct: purchased Sigma (St. Louis, Mo.); host or cells: bovine pancreas
Procedure: as §1

β-trypsin = biological target: T3, β-trypsin (Bos taurus, UniProt P00760); experiment: biochemical; type: biochemical, bovine
T3 construct: β-trypsin (bovine pancreatic); purchased Sigma (St. Louis, Mo.); host or cells: bovine pancreas
T3 sequence (P00760 24-246): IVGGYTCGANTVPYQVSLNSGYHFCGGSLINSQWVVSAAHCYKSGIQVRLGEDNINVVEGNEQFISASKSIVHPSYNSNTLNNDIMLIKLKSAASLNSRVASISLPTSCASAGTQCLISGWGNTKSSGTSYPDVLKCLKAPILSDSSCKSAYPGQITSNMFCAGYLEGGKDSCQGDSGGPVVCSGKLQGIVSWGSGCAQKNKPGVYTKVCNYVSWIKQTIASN
Procedure: as §1

elastase = biological target: T4, elastase (Sus scrofa, UniProt P00772); experiment: elastase selectivity counter-screen; type: biochemical, porcine
T4 construct: purchased Sigma (St. Louis, Mo.); host or cells: porcine pancreas
T4 sequence (P00772 27-266): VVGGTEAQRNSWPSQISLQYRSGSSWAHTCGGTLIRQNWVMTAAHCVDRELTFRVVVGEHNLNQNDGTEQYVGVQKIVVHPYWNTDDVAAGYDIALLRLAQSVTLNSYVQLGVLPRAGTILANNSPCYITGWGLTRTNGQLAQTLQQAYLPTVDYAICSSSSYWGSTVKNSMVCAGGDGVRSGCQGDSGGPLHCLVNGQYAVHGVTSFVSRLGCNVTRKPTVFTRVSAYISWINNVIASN
Procedure: as §1

[2] = tested on: JM109 that does not express AmpC; experiment: Antimicrobial susceptibility testing (MIC), strain without AmpC; type: cell-based, E. coli; details: Escherichia coli, read-out: MIC of ampicillin in JM109 that does not express AmpC
Procedure: as §2

T1 sequence (P00811 20-377): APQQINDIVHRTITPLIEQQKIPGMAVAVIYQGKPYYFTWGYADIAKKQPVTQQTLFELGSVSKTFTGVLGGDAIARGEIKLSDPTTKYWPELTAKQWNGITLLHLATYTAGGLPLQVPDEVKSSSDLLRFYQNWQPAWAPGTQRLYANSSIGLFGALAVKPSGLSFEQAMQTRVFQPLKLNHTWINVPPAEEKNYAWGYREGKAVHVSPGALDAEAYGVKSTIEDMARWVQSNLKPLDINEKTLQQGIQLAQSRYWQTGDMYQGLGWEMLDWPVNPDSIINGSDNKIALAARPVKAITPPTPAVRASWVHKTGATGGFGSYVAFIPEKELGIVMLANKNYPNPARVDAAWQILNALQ

Compound	Ki (AmpC β-lactamase)	change of AmpC inhibition/binding relative to compound 1 (AmpC β-lactamase)	also measured
Cc1oc(C)c(S(=O)(=O)Nc2cccs2)c1C(=O)O [Compound 8, 2,5-dimethyl-4-(2-thienylaminosulfonyl)furan-3-carboxylic acid]	64 µM	–	–
O=C(Cc1cccs1)N[C@@H]1C(=O)N2C(C(=O)O)=C(/C=C/c3ccc([N+](=O)[O-])cc3[N+](=O)[O-])CS[C@H]12 [nitrocefin, reference compound]	–	–	Km (AmpC β-lactamase; read-out: Km of nitrocefin for AmpC, 50 mM TRIS buffer, pH 7.0): 127 µM
COC(=O)c1sccc1S(=O)(=O)Nc1ccc(Cl)cc1 [Compound 5, methyl 3-[(4-chloroanilino)sulfonyl]thiophene-2-carboxylate]	> 100 µM	compromised inhibition; also recorded: binding was somewhat problematic	–
Cc1ccc(S(=O)(=O)Nc2csc(C)c2C(=O)O)cc1 [Compound 4, 2-methyl-4-[[(4-methylphenyl)sulfonyl]amino]thiophene-3-carboxylic acid]	60 µM	diminished inhibition three-fold; also recorded: reduced binding by three-fold	–
O=C(O)c1sccc1S(=O)(=O)Nc1ccc(Cl)cc1 [Compound 1, 3-[(4-chloroanilino)sulfonyl]thiophene-2-carboxylic acid]	23 µM	–	inhibition of related serine amidases in counter-screens (related serine amidases): did not inhibit; antibiotic activity of compound alone ([1]; at the concentration used in the ampicillin combination): no measurable antibiotic activity; increase in efficacy of ampicillin ([1]; bacterial cell culture, resistant strain): four-fold; minimum inhibitory concentration (MIC) of ampicillin in the presence of the compound ([1]; resistant strain overexpressing β-lactamase): 128 µg/mL; mode of inhibition of AmpC (AmpC β-lactamase): competitive, non-covalent inhibitor; also recorded: competitive, reversible inhibitor; IC50 (α-chymotrypsin): > 1200 µM; IC50 (β-trypsin; 200 μM BAEE, 50 mM TRIS pH 7.0, 25° C.): > 4000 µM; inhibition of trypsin (β-trypsin; at concentrations up to 4 mM): no inhibition; IC50 (elastase; 640 μM elastase substrate, 50 mM TRIS pH 7.0, 25° C.): > 4000 µM; inhibition of elastase (elastase; at concentrations up to 4 mM): no inhibition
O=C(O)CCSc1nc2ccccc2s1 [Compound 3, 3-(2-benzothiazolylthio)propionic acid]	646 µM	–	–
3-([4-[3-chloro-5-(trifluoromethyl)pyridin-2-yl]piperazino]sulfonyl)thiophene-2-carboxylate [Compound 6]	> 100 µM	hindered binding	–
CC1(C)S[C@@H]2[C@H](NC(=O)[C@H](N)c3ccccc3)C(=O)N2[C@H]1C(=O)O [Ampicillin, ampicillin, reference compound]	–	–	MIC [2]: 4 µg/mL; MIC ([1]; Escherichia coli, read-out: MIC JM109/AmpC): 512 µg/mL (≈ 1470 µM)
O=S(=O)(O)CCCSc1nc2ccccc2s1 [Compound 2, 3-(2-benzothiazolylthio)-1-propanesulfonic acid]	318 µM	–	–
O=C(O)c1sccc1S(=O)(=O)Nc1ccccc1N1CCCCC1 [Compound 7, 3-[(2-piperidinoanilino)sulfonyl]thiophene-2-carboxylic acid]	14 µM	slight improvement in affinity	–
COc1ccc(NS(=O)(=O)c2ccccc2[N+](=O)[O-])cc1 [Compound 9, N-(4-methoxyphenyl)-2-nitro-benzenesulfonamide]	> 100 µM	compromised inhibition; also recorded: binding was somewhat problematic	–
